Here are results for eleven compounds from patent publication US10081628B2, “Apoptosis-inducing agents for the treatment of cancer and immune and autoimmune diseases” (AbbVie Inc., priority 2013, dated 2018).

Test [1] has as its system lymphocytes. As to the kind of experiment: Lymphocyte reduction in C57BL/6 mice. The format is in vivo. Particulars: Mus musculus, ip. As to the method: An experiment was performed to evaluate the effect of Bcl-2 selective/Bcl-xL sparing compounds on immune cells and platelets, as evaluated in C57Bl/6 mice. Mice were treated four days with compounds (doses of 30 mg/kg, administered by intraperitoneal injection every day) and cell numbers were measured with a Cell Dyn hematology analyzer 24 hours after the first and last doses. Exposure of the compound (area under the curve) was calculated by using time points of 1, 6, 10 and 24 hours after the last dose.

Test [2] deals with GST-Bcl-2 (Homo sapiens, UniProt P10415). Nature of the test: TR-FRET Bcl-2 binding assay (F-Bak peptide probe). Particulars: GST-Bcl-2 1 nM, F-Bak peptide probe 100 nM, Tb-anti-GST 1 nM; Wang's equation; '<' = below limit of detection. As to the method:
Determination of the utility of compounds of this invention as binders to and inhibitors of anti-apoptotic Bcl-2 proteins was performed using the Time Resolved-Fluorescence Resonance Energy Transfer (TR-FRET) Assay. Tb-anti-GST antibody was purchased from Invitrogen (Catalog No. PV4216).
Representative compounds were serially diluted in dimethyl sulfoxide (DMSO) starting at 50 μM (2× starting concentration; 10% DMSO) and 10 μL were transferred into a 384-well plate. The samples are then mixed on a shaker for 1 minute and incubated for an additional 3 hours at room temperature. For each assay, the probe/antibody and protein/probe/antibody were included on each assay plate as negative and positive controls, respectively. Fluorescence was measured on the Envision (Perkin Elmer) using a 340/35 nm excitation filter and 520/525 (F-Bak peptide) and 495/510 nm (Tb-labeled […] antibody) emission filters. Dissociation constants (Ki) are shown in TABLE 2 below and were determined using Wang's equation (Wang Z.-X., An Exact Mathematical Expression For Describing Competitive Binding Of Two Different Ligands To A Protein Molecule. FEBS Lett. 1995, 360:111-4).
The samples were then mixed on a shaker for 1 minute and incubated for an additional 3 hours at room temperature. For each assay, the probe/antibody and protein/probe/antibody were included on each assay plate as negative and positive controls, respectively. Fluorescence was measured on the Envision (Perkin Elmer) using a 340/35 nm excitation filter and 520/525 (F-Bak peptide) and 495/510 nm (Tb-labeled anti-Histidine antibody) emission filters.
Inhibition constants (Ki) for compounds were determined using Wang's equation (Wang Zx. An Exact Mathematical Expression For Describing Competitive Binding Of Two Different Ligands To A Protein Molecule. FEBS Lett. 1995, 360:111-4).
The inhibition constant (Ki) is the dissociation constant of an enzyme-inhibitor complex or a protein/small molecule complex, wherein the small molecule is inhibiting binding of one protein to another protein or peptide. So a large Ki value indicates a low binding affinity and a small Ki value indicates a high binding affinity. […] The compounds are therefore expected to have utility in treatment of diseases during which anti-apoptotic Bcl-2 protein is expressed. Biological Data

For test [3], the system named is RS4;11 cells. As to the kind of experiment: RS4;11 cell viability assay (CellTiter Glo). As to conditions: 10% human serum, 48 hours. The format is cell-based. In a few lines:
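Cells seeded at 50,000 per well and exposed to compounds for 48 h at 37 C, 5% CO2 in the presence of 10% human serum. Viability read by CellTiter Glo; EC50 derived from percentage of viable cells versus untreated controls.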

Where [4] appears, read: 30 mg/kg intraperitoneal every day for four days, 24 hours after the last dose, read-out: Lymphocyte reduction % inh. day 4.
The mark [5] stands for this setting: 30 mg/kg intraperitoneal every day, 24 hours after the first dose, read-out: Lymphocyte reduction % inh. day 1.

Read-outs that look alike come from different tables or passages of the source.

Chain of GST-Bcl-2 (P10415 whole entry): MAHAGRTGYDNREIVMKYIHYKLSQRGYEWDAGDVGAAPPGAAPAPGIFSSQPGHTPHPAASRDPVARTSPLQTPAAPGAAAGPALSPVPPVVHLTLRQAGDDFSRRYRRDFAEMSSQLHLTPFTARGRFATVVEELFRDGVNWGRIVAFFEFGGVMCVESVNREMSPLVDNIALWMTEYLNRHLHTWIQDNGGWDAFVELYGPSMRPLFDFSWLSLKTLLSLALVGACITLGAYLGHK

Take `CC1(C)CCC(CN2CCN(c3ccc(C(=O)NS(=O)(=O)c4ccc(NN5CCOCC5)c([N+](=O)[O-])c4)c(Oc4cnc5[nH]ccc5c4)c3)CC2)=C(c2ccc(Cl)cc2)C1` [Example 16, 4-(4-{[2-(4-chlorophenyl)-4,4-dimethylcyclohex-1-en-1-yl]methyl}piperazin-1-yl)-N-{[4-(morpholin-4-ylamino)-3-nitrophenyl]sulfonyl}-2-(1H-pyrrolo[2,3-b]pyridin-5-yloxy)benzamide]: the inhibition at 30 mg/kg in test [1] (setting [4]) and in test [1] (setting [5]) was less than 15% each time. Also, the Ki in test [2] was less than 0.1 nM. For the same compound, the EC50 in test [3] is 67 nM.

Turning to `CC1(C)CCC(CN2CCN(c3ccc(C(=O)NS(=O)(=O)c4ccc(NC[C@H]5COCCO5)c([N+](=O)[O-])c4)c(Oc4cnc5[nH]ccc5c4)c3)CC2)=C(c2ccc(Cl)cc2)C1` [Example 9, 4-(4-{[2-(4-chlorophenyl)-4,4-dimethylcyclohex-1-en-1-yl]methyl}piperazin-1-yl)-N-[(4-{[(2S)-1,4-dioxan-2-ylmethyl]amino}-3-nitrophenyl)sulfonyl]-2-(1H-pyrrolo[2,3-b]pyridin-5-yloxy)benzamide], the inhibition at 30 mg/kg in test [1] (setting [4]) came out at 58%; in test [1] (setting [5]), 69%. In test [2], this compound registered a Ki of less than 0.1 nM. In addition, the EC50 in test [3] stood at 2.2 nM.

With `CC1(C)CCC(CN2CCN(c3ccc(C(=O)NS(=O)(=O)c4ccc(NCC5COC5)c([N+](=O)[O-])c4)c(Oc4cnc5[nH]ccc5c4)c3)CC2)=C(c2ccc(Cl)cc2)C1` [Example 23, 4-(4-{[2-(4-chlorophenyl)-4,4-dimethylcyclohex-1-en-1-yl]methyl}piperazin-1-yl)-N-({3-nitro-4-[(oxetan-3-ylmethyl)amino]phenyl}sulfonyl)-2-(1H-pyrrolo[2,3-b]pyridin-5-yloxy)benzamide], the inhibition at 30 mg/kg is 15% in test [1] (setting [4]) and 37% in test [1] (setting [5]). Also, the Ki in test [2] was less than 0.1 nM. The compound further yielded an EC50 in test [3] of 23 nM.

For the compound `C[C@@H](Nc1ccc(S(=O)(=O)NC(=O)c2ccc(N3CCN(CC4=C(c5ccc(Cl)cc5)CC(C)(C)CC4)CC3)cc2Oc2cnc3[nH]ccc3c2)cc1[N+](=O)[O-])C1CCOCC1` [Example 3, 4-(4-{[2-(4-chlorophenyl)-4,4-dimethylcyclohex-1-en-1-yl]methyl}piperazin-1-yl)-N-[(3-nitro-4-{[(1R)-1-(tetrahydro-2H-pyran-4-yl)ethyl]amino}phenyl)sulfonyl]-2-(1H-pyrrolo[2,3-b]pyridin-5-yloxy)benzamide], the inhibition at 30 mg/kg in test [1] (setting [4]) and in test [1] (setting [5]) was less than 15% each time. Besides, in test [2], the inhibition constant Ki is less than 0.1 nM. In test [3], this compound displayed an EC50 of 150 nM.

Turning to `CC1(C)CCC(CN2CCN(c3ccc(C(=O)NS(=O)(=O)c4ccc(NC[C@@H]5CCOC5)c([N+](=O)[O-])c4)c(Oc4cnc5[nH]ccc5c4)c3)CC2)=C(c2ccc(Cl)cc2)C1` [Example 36, 4-(4-{[2-(4-chlorophenyl)-4,4-dimethylcyclohex-1-en-1-yl]methyl}piperazin-1-yl)-N-[(3-nitro-4-{[(3 S)-tetrahydrofuran-3-ylmethyl]amino}phenyl)sulfonyl]-2-(1H-pyrrolo[2,3-b]pyridin-5-yloxy)benzamide], the inhibition at 30 mg/kg was determined as 42% in test [1] (setting [4]) and 47% in test [1] (setting [5]). The compound further registered a Ki in test [2] of less than 0.1 nM. Further, in test [3], a half-maximal response (EC50) required 32 nM.

Regarding `CC1(C)CCC(CN2CCN(c3ccc(C(=O)NS(=O)(=O)c4ccc(NC[C@H]5COCC(C)(C)O5)c([N+](=O)[O-])c4)c(Oc4cnc5[nH]ccc5c4)c3)CC2)=C(c2ccc(Cl)cc2)C1` [Example 37, 4-(4-{[2-(4-chlorophenyl)-4,4-dimethylcyclohex-1-en-1-yl]methyl}piperazin-1-yl)-N-{[4-({[(2S)-6,6-dimethyl-1,4-dioxan-2-yl]methyl}amino)-3-nitrophenyl]sulfonyl}-2-(1H-pyrrolo[2,3-b]pyridin-5-yloxy)benzamide], the values for the inhibition at 30 mg/kg in test [1] (setting [4]) and in test [1] (setting [5]) were 22% and 28%, respectively. In test [2], this compound gave a Ki of less than 0.1 nM. Further, a half-maximal effect in test [3] (EC50) was put at 250 nM.

For the compound `C[C@@H]1COC[C@H](CNc2ccc(S(=O)(=O)NC(=O)c3ccc(N4CCN(CC5=C(c6ccc(Cl)cc6)CC(C)(C)CC5)CC4)cc3Oc3cnc4[nH]ccc4c3)cc2[N+](=O)[O-])O1` [Example 35, 4-(4-{[2-(4-chlorophenyl)-4,4-dimethylcyclohex-1-en-1-yl]methyl}piperazin-1-yl)-N-{[4-({[(2S,6R)-6-methyl-1,4-dioxan-2-yl]methyl}amino)-3-nitrophenyl]sulfonyl}-2-(1H-pyrrolo[2,3-b]pyridin-5-yloxy)benzamide], the inhibition at 30 mg/kg came out at 49% in test [1] (setting [4]) and 54% in test [1] (setting [5]). For the same compound, in test [2], the Ki was less than 0.1 nM. Further, the EC50 in test [3] came out at 12 nM.

Turning to `CC1(C)CCC(CN2CCN(c3ccc(C(=O)NS(=O)(=O)c4ccc(NCC5(C#N)CCOCC5)c([N+](=O)[O-])c4)c(Oc4cnc5[nH]ccc5c4)c3)CC2)=C(c2ccc(Cl)cc2)C1` [Example 46, 4-(4-{[2-(4-chlorophenyl)-4,4-dimethylcyclohex-1-en-1-yl]methyl}piperazin-1-yl)-N-[(4-{[(4-cyanotetrahydro-2H-pyran-4-yl)methyl]amino}-3-nitrophenyl)sulfonyl]-2-(1H-pyrrolo[2,3-b]pyridin-5-yloxy)benzamide], the inhibition at 30 mg/kg in test [1] (setting [4]) was 35%; in test [1] (setting [5]) it was 46%. The inhibition constant (Ki) in test [2] was less than 0.1 nM. Also, the EC50 in test [3] turned out to be 6.9 nM.

Regarding `CC1(C)CCC(CN2CCN(c3ccc(C(=O)NS(=O)(=O)c4ccc(NC[C@H]5CCCOCC5)c([N+](=O)[O-])c4)c(Oc4cnc5[nH]ccc5c4)c3)CC2)=C(c2ccc(Cl)cc2)C1` [Example 20, 4-(4-{[2-(4-chlorophenyl)-4,4-dimethylcyclohex-1-en-1-yl]methyl}piperazin-1-yl)-N-[(3-nitro-4-{[(4S)-oxepan-4-ylmethyl]amino}phenyl)sulfonyl]-2-(1H-pyrrolo[2,3-b]pyridin-5-yloxy)benzamide], the inhibition at 30 mg/kg is 57% in test [1] (setting [4]) and 20% in test [1] (setting [5]). Moreover, the inhibition constant Ki in test [2] was less than 0.1 nM. Moreover, the EC50 in test [3] worked out at 19 nM.

In the case of `CC1(C)CCC(CN2CCN(c3ccc(C(=O)NS(=O)(=O)c4ccc(NC[C@@H]5CCOC(C)(C)C5)c([N+](=O)[O-])c4)c(Oc4cnc5[nH]ccc5c4)c3)CC2)=C(c2ccc(Cl)cc2)C1` [Example 34, 4-(4-{[2-(4-chlorophenyl)-4,4-dimethylcyclohex-1-en-1-yl]methyl}piperazin-1-yl)-N-{[4-({[(4R)-2,2-dimethyltetrahydro-2H-pyran-4-yl]methyl}amino)-3-nitrophenyl]sulfonyl}-2-(1H-pyrrolo[2,3-b]pyridin-5-yloxy)benzamide], the inhibition at 30 mg/kg in test [1] (setting [4]) was 61%; in test [1] (setting [5]) it was less than 15%. In test [2], this compound returned a Ki of less than 0.1 nM. In test [3], this compound registered an EC50 of 13 nM.

As to `C[C@@H]1CO[C@H](CNc2ccc(S(=O)(=O)NC(=O)c3ccc(N4CCN(CC5=C(c6ccc(Cl)cc6)CC(C)(C)CC5)CC4)cc3Oc3cnc4[nH]ccc4c3)cc2[N+](=O)[O-])CO1` [Example 24, 4-(4-{[2-(4-chlorophenyl)-4,4-dimethylcyclohex-1-en-1-yl]methyl}piperazin-1-yl)-N-{[4-({[(2R,5R)-5-methyl-1,4-dioxan-2-yl]methyl}amino)-3-nitrophenyl]sulfonyl}-2-(1H-pyrrolo[2,3-b]pyridin-5-yloxy)benzamide], the inhibition at 30 mg/kg in test [1] (setting [4]) is 58%; in test [1] (setting [5]), 48%. The Ki in test [2] is less than 0.1 nM. The compound also registered an EC50 in test [3] of 14 nM.
